Measured values from publication PMC6295246 (Clinical cancer research : an official journal of the …, 2018).

What was measured:
[1] = system: relapsed or refractory neuroblastoma; assay: Best objective response; assay type: in vivo, human; settings: pooled Phase 1/2/OS
[2] = system: relapsed or refractory neuroblastoma; assay: Progression-free survival; assay type: in vivo, human; settings: pooled Phase 1/2/OS
[3] = Alisertib plasma pharmacokinetics; assay type: in vivo, human; settings: pooled phase 1, phase 2 and OS cohorts
[4] = system: relapsed and refractory neuroblastoma; settings: phase 1, with irinotecan and temozolomide; cited from earlier work
[5] = Alisertib Day 5 trough > median, N=21
[6] = Alisertib Day 5 trough ≤ median, N=21
[7] = Alisertib exposure > median, N=21
[8] = Alisertib exposure ≤ median, N=21

SMILES: COc1cc(Nc2ncc3c(n2)-c2ccc(Cl)cc2C(c2c(F)cccc2OC)=NC3)ccc1C(=O)O [alisertib]
- Objective Response ([1]; > 2 Prior regimens, N=17): 24%
- Objective Response ([1]; AURKA Codon 31 heterozygote, N=12): 25%
- Objective Response ([1]; AURKA Codon 31 wild type, N=27): 19%
- Objective Response ([1]; AURKA Codon 57 wild type, N=27): 19%
- Objective Response ([1]; Age < 8 years, N=28): 18%
- Objective Response ([1]; Age ≥ 4 years, N=47): 26%
- Objective Response ([1]; Age ≥ 8 years, N=26): 27%
- Objective Response ([1]; Alisertib Cmax > median, N=21): 19%
- Objective Response ([1]; Alisertib Cmax ≤ median, N=21): 24%
- Objective Response [1, 5]: 24%
- Objective Response [1, 6]: 19%
- Objective Response [1, 7]: 19%
- Objective Response [1, 8]: 24%
- Objective Response ([1]; Aurora A protein +, N=12): 17%
- Objective Response ([1]; Aurora A protein −, N=18): 22%
- Objective Response ([1]; Lin28B protein +, N=17): 12%
- Objective Response ([1]; MYCN non-amplified, N=33): 27%
- Objective Response ([1]; No prior irinotecan, N=36): 28%
- Objective Response ([1]; No prior temozolomide, N=37): 27%
- Objective Response ([1]; Prior temozolomide, N=17): 12%
- Objective Response ([1]; UGT1A1 genotype 6 / 6, N=17): 35%
- Objective Response ([1]; UGT1A1 genotype 6 / 7, N=17): 6%
- Objective Response ([1]; UGT1A1 genotype 7 / 7, N=5): 20%
- Objective Response ([1]; ≤ 2 Prior regimens, N=37): 22%
- 1-Yr PFS ([2]; > 2 Prior regimens, N=17): 32%
- 1-Yr PFS ([2]; AURKA Codon 31 wild type, N=27): 32%
- 1-Yr PFS ([2]; AURKA Codon 57 heterozygote, N=13): 43%
- 1-Yr PFS ([2]; Age ≥ 4 years, N=47): 42%
- 1-Yr PFS ([2]; Age ≥ 8 years, N=26): 47%
- 1-Yr PFS ([2]; Alisertib Cmax > median, N=21): 28%
- 1-Yr PFS ([2]; Alisertib Cmax ≤ median, N=21): 55%
- 1-Yr PFS [2, 5]: 45%
- 1-Yr PFS [2, 6]: 33%
- 1-Yr PFS [2, 7]: 41%
- 1-Yr PFS [2, 8]: 38%
- 1-Yr PFS ([2]; Lin 28B protein −, N=13): 34%
- 1-Yr PFS ([2]; MYCN amplified or Myc/Mycn +, N=18): 12%
- 1-Yr PFS ([2]; MYCN non-amplified, N=33): 47%
- 1-Yr PFS ([2]; No prior irinotecan, N=36): 43%
- 1-Yr PFS ([2]; No prior temozolomide, N=37): 41%
- 1-Yr PFS ([2]; Prior temozolomide, N=17): 32%
- 1-Yr PFS ([2]; UGT1A1 genotype 6 / 6, N=17): 57%
- 1-Yr PFS ([2]; UGT1A1 genotype 6 / 7, N=17): 26%
- 1-Yr PFS ([2]; UGT1A1 genotype 7 / 7, N=5): 40%
- 1-Yr PFS ([2]; ≤ 2 Prior regimens, N=37): 42%
- alisertib Day 5 trough in the first cycle, median [3]: 0.46 µM
- estimated progression-free survival (PFS) rate at 2 years [4]: 52%
- response rate [4]: 31.8%
